Data taken from patent publication US9840510B1, “Pyrazolo[1,5-a]pyrimidinyl carboxamide compounds and their use in the treatment of medical disorders” (Lysosomal Therapeutics Inc., priority 2016, dated 2017).
In brackets after ≈: the same amount, converted by molar mass.

Experiment: Compound solubility in water
Format: physicochemical

Row | SMILES | solubility [µg/mL]
1 | Cc1cc(-c2cncc(Cl)c2)nc2c(C(=O)NC(C)(C)C3CC3)cnn12 [III-292] | 0.3 (≈ 0.811 µM)
2 | CCCCO[C@H]1CC[C@H](NC(=O)c2cnn3c(C)cc(-c4cncc(Cl)c4)nc23)CC1 [III-293] | 0.3 (≈ 0.679 µM)
3 | Cc1cc(-c2cc(F)c3c(c2)OCO3)nc2c(C(=O)NC(C)C(F)(F)F)cnn12 (stereo not drawn) [III-294] | 0.6 (≈ 1.46 µM)
4 | Cc1cc(-c2cc(F)c3ocnc3c2)nc2c(C(=O)NC(C)C(F)(F)F)cnn12 (stereo not drawn) [III-295] | 3.4 (≈ 8.35 µM)
5 | COCCOc1ccc(-c2cc(C)n3ncc(C(=O)NC(C)C(F)(F)F)c3n2)cc1F (stereo not drawn) [III-298] | 1.5 (≈ 3.41 µM)
6 | Cc1cc(-c2ccc(N3CCOCC3)c(F)c2)nc2c(C(=O)NC(C)C(F)(F)F)cnn12 (stereo not drawn) [III-299] | 0.5 (≈ 1.11 µM)
7 | Cc1cc(-c2sccc2C#N)nc2c(C(=O)NC(C)C(F)(F)F)cnn12 (stereo not drawn) [III-300] | 1.4 (≈ 3.69 µM)
8 | Cc1cc(-c2sccc2C#N)nc2c(C(=O)N[C@@H](C)C3CC3)cnn12 [III-301] | 1.1 (≈ 3.13 µM)
9 | Cc1cc(-c2sccc2C#N)nc2c(C(=O)N[C@H](C)C3CC3)cnn12 [III-302] | 0.5 (≈ 1.42 µM)
10 | Cc1cc(-c2ccc3c(c2)ncn3C)nc2c(C(=O)NC(C3CC3)C(F)(F)F)cnn12 (stereo not drawn) [III-303] | 3.2 (≈ 7.47 µM)
11 | Cc1cc(-c2ccc3ncn(C)c3c2)nc2c(C(=O)NC(C3CC3)C(F)(F)F)cnn12 (stereo not drawn) [III-304] | 0.4 (≈ 0.934 µM)
12 | Cc1cc(-c2ccc3nc[nH]c3c2)nc2c(C(=O)NC(C3CC3)C(F)(F)F)cnn12 (stereo not drawn) [III-307] | 0.3 (≈ 0.724 µM)
13 | Cc1cc(-c2cccc3nc[nH]c23)nc2c(C(=O)NC(C3CC3)C(F)(F)F)cnn12 (stereo not drawn) [III-308] | 4.6 (≈ 11.1 µM)
14 | Cc1cc(-c2cccc3ncn(C)c23)nc2c(C(=O)NC(C3CC3)C(F)(F)F)cnn12 (stereo not drawn) [III-309] | 31.4 (≈ 73.3 µM)
15 | Cc1cc(-c2cccc3c2ncn3C)nc2c(C(=O)NC(C3CC3)C(F)(F)F)cnn12 (stereo not drawn) [III-310] | 0.3 (≈ 0.7 µM)
16 | Cc1cc(-c2nc3ccccc3[nH]2)nc2c(C(=O)NC(C3CC3)C(F)(F)F)cnn12 (stereo not drawn) [III-311] | 0.6 (≈ 1.45 µM)
17 | Cc1cc(-c2nc3ccccc3n2C)nc2c(C(=O)NC(C3CC3)C(F)(F)F)cnn12 (stereo not drawn) [III-312] | 0.3 (≈ 0.7 µM)
18 | Cc1cc(N2CC(C(C)C)OC2=O)nc2c(C(=O)NC(c3ccccc3)C(F)(F)F)cnn12 (stereo not drawn) [III-313] | 0.1 (≈ 0.217 µM)
19 | Cc1cc(N2C[C@H](c3ccccc3)OC2=O)nc2c(C(=O)NC(C3CC3)C(F)(F)F)cnn12 (stereo partly drawn) [III-314] | 0.2 (≈ 0.435 µM)
20 | Cc1cc(N2C[C@@H](c3ccccc3)OC2=O)nc2c(C(=O)NC(C3CC3)C(F)(F)F)cnn12 (stereo partly drawn) [III-315] | 0.1 (≈ 0.218 µM)
21 | Cc1cc(N2CC(C(C)C)OC2=O)nc2c(C(=O)NC(C3CC3)C(F)(F)F)cnn12 (stereo not drawn) [III-316] | 1.3 (≈ 3.06 µM)
22 | Cc1cc(N2CC(C)(C)NC2=O)nc2c(C(=O)NC(C3CC3)C(F)(F)F)cnn12 (stereo not drawn) [III-319] | 1.3 (≈ 3.17 µM)
23 | Cc1nc2cc(-c3cc(C)n4ncc(C(=O)N[C@@H](C)C5CC5)c4n3)ccc2o1 [III-321] | 1.9 (≈ 5.06 µM)
24 | Cc1cc(-c2ccnnc2)nc2c(C(=O)NC(C3CC3)C(F)(F)F)cnn12 (stereo not drawn) [III-325] | 14.6 (≈ 38.8 µM)

Row | SMILES | solubility [µg/mL]
25 | Cc1cc(N2CCN(C(C)C)C2=O)nc2c(C(=O)N[C@@H](C3CC3)C(F)(F)F)cnn12 [III-326] | 21 (≈ 49.5 µM)
26 | Cc1cc(N2CCN(C(C)C)C2=O)nc2c(C(=O)N[C@H](C3CC3)C(F)(F)F)cnn12 [III-327] | 32.8 (≈ 77.3 µM)
27 | Cc1cc(N2CCC(C)(C)C2=O)nc2c(C(=O)NC(C3CC3)C(F)(F)F)cnn12 (stereo not drawn) [III-328] | 3.3 (≈ 8.06 µM)
28 | Cc1nc(-c2cc(C)n3ncc(C(=O)N[C@H](C4CC4)C(F)(F)F)c3n2)oc1C [III-331] | 1 (≈ 2.54 µM)
29 | Cc1cc(-c2ccc(F)o2)nc2c(C(=O)N[C@H](C)C(F)(F)F)cnn12 [III-334] | 2 (≈ 5.61 µM)
30 | Cc1cc(-c2cc(C)n3ncc(C(=O)N[C@H](C)C(F)(F)F)c3n2)co1 [III-338] | 0.2 (≈ 0.568 µM)
31 | Cc1cc(-c2cc(C)n3ncc(C(=O)N[C@H](C4CC4)C(F)(F)F)c3n2)on1 [III-343] | 1.5 (≈ 3.95 µM)
32 | Cc1nc(-c2cc(C)n3ncc(C(=O)N[C@H](C)C(F)(F)F)c3n2)oc1C [III-345] | 1 (≈ 2.72 µM)
33 | Cc1cc(-c2cc(C)n3ncc(C(=O)N[C@@H](C)C4CC4)c3n2)sn1 [III-346] | 18.8 (≈ 55.1 µM)
34 | Cc1cc(-c2cc(F)ccc2C#N)nc2c(C(=O)N[C@H](C)C(F)(F)F)cnn12 [III-349] | 0.1 (≈ 0.256 µM)
35 | Cc1cc(-c2cc(F)ccc2C#N)nc2c(C(=O)N[C@@H](C)C(F)(F)F)cnn12 [III-350] | 0.3 (≈ 0.767 µM)
36 | Cc1cc(-c2cnccc2C(F)(F)F)nc2c(C(=O)N[C@H](C3CC3)C(F)(F)F)cnn12 [III-353] | 8.3 (≈ 18.7 µM)
37 | Cc1cc(-c2cnccc2C(F)(F)F)nc2c(C(=O)N[C@@H](C3CC3)C(F)(F)F)cnn12 [III-354] | 13.5 (≈ 30.4 µM)
38 | Cc1cc(-c2cccnc2C(F)(F)F)nc2c(C(=O)N[C@H](C3CC3)C(F)(F)F)cnn12 [III-355] | 0.1 (≈ 0.226 µM)
39 | Cc1cc(-c2ccc(F)cc2)nc2c(C(=O)N[C@H](C)C(F)(F)F)cnn12 [III-359] | 0.7 (≈ 1.91 µM)
40 | Cc1cc(-c2ccc(F)cc2)nc2c(C(=O)N[C@@H](C)C(F)(F)F)cnn12 [III-360] | 0.7 (≈ 1.91 µM)
41 | Cc1cc(-c2cccc(F)c2)nc2c(C(=O)N[C@H](C)C(F)(F)F)cnn12 [III-361] | 0.7 (≈ 1.91 µM)
42 | Cc1cc(-c2cccc(F)c2)nc2c(C(=O)N[C@@H](C)C(F)(F)F)cnn12 [III-362] | 0.6 (≈ 1.64 µM)
43 | Cc1cc(-c2cncc(C#N)c2)nc2c(C(=O)N[C@H](C3CC3)C(F)(F)F)cnn12 [III-363] | 1.7 (≈ 4.25 µM)
44 | Cc1cc(-c2cccnc2C#N)nc2c(C(=O)N[C@H](C3CC3)C(F)(F)F)cnn12 [III-365] | 1.8 (≈ 4.5 µM)
45 | Cc1cc(-c2cccnc2C#N)nc2c(C(=O)N[C@@H](C3CC3)C(F)(F)F)cnn12 [III-366] | 1.1 (≈ 2.75 µM)
46 | Cc1cc(-c2ccc(C#N)nc2)nc2c(C(=O)N[C@H](C3CC3)C(F)(F)F)cnn12 [III-367] | 0.4 (≈ 0.999 µM)
47 | Cc1ccc(-c2cc(C)n3ncc(C(=O)N[C@H](C4CC4)C(F)(F)F)c3n2)c(F)n1 [III-372] | 1.7 (≈ 4.17 µM)
48 | Cc1cnc(F)c(-c2cc(C)n3ncc(C(=O)N[C@H](C4CC4)C(F)(F)F)c3n2)c1 [III-374] | 1.1 (≈ 2.7 µM)

Row | SMILES | solubility [µg/mL]
49 | Cc1ncc(-c2cc(C)n3ncc(C(=O)N[C@H](C4CC4)C(F)(F)F)c3n2)cc1F [III-380] | 0.3 (≈ 0.736 µM)
50 | C#Cc1cncc(-c2cc(C)n3ncc(C(=O)N[C@@H](C4CC4)C(F)(F)F)c3n2)c1 [III-383] | 0.2 (≈ 0.501 µM)
51 | COCOc1cccc(-c2cc(C)n3ncc(C(=O)N[C@@H](C4CC4)C(F)(F)F)c3n2)n1 [III-384] | 0.1 (≈ 0.23 µM)
52 | Cc1cc(-c2nnc(C(C)C)o2)nc2c(C(=O)N[C@H](C3CC3)C(F)(F)F)cnn12 [III-391] | 0.3 (≈ 0.735 µM)
53 | Cc1cc(-c2nnc(C(C)C)o2)nc2c(C(=O)N[C@@H](C3CC3)C(F)(F)F)cnn12 [III-392] | 0.4 (≈ 0.979 µM)
54 | Cc1cc(-c2noc(C(C)C)n2)nc2c(C(=O)N[C@@H](C3CC3)C(F)(F)F)cnn12 [III-394] | 0.7 (≈ 1.71 µM)
55 | Cc1cc(-c2cc(F)ccc2C#N)nc2c(C(=O)N[C@@H](C)C3CC3)cnn12 [III-396] | 0.3 (≈ 0.826 µM)
56 | Cc1cc(-c2cccc(F)c2C#N)nc2c(C(=O)N[C@@H](C)C3CC3)cnn12 [III-398] | 0.2 (≈ 0.55 µM)
57 | Cc1cc(-c2cccc(F)c2C#N)nc2c(C(=O)N[C@@H](C)C(F)(F)F)cnn12 [III-399] | 0.1 (≈ 0.256 µM)
58 | CO[C@H]1CC[C@H]([C@@H](C)NC(=O)c2cnn3c(C)cc(C)nc23)CC1 [III-403] | 21.4 (≈ 64.8 µM)
59 | CO[C@H]1CC[C@@H]([C@@H](C)NC(=O)c2cnn3c(C)cc(C)nc23)CC1 [III-404] | 15.1 (≈ 45.7 µM)
60 | COc1cccc(-c2cc(C)n3ncc(C(=O)NC(C)(C)C(F)(F)F)c3n2)c1 [III-405] | 1.5 (≈ 3.82 µM)
61 | Cc1cc(-c2cccc(Cl)c2)nc2c(C(=O)NC(C)(C)C(F)(F)F)cnn12 [III-406] | 0.8 (≈ 2.02 µM)
62 | CCc1cc(-c2ccccn2)nc2c(C(=O)NC(C)(C)C(F)(F)F)cnn12 [III-407] | 0.09 (≈ 0.238 µM)
63 | Cc1cc(-c2ccccn2)nc2c(C(=O)NC(C)(C)C(F)(F)F)cnn12 [III-408] | 0.4 (≈ 1.1 µM)
64 | COc1ccc(F)c(-c2cc(C)n3ncc(C(=O)NC(C)C(F)(F)F)c3n2)c1 (stereo not drawn) [III-409] | 0.9 (≈ 2.27 µM)
65 | COc1cc(F)cc(-c2cc(C)n3ncc(C(=O)NC(C)C(F)(F)F)c3n2)c1 (stereo not drawn) [III-410] | 0.06 (≈ 0.151 µM)
66 | Cc1cc(-c2ccns2)nc2c(C(=O)NC(C3CC3)C(F)(F)F)cnn12 (stereo not drawn) [III-411] | 0.7 (≈ 1.84 µM)
67 | C#CC(C)(C)NC(=O)c1cnn2c(C)cc(-c3ccns3)nc12 [III-412] | 3.7 (≈ 11.4 µM)
68 | Cc1cc(-c2cccc(C(=O)N(C)C)c2)nc2c(C(=O)NC(C3CC3)C(F)(F)F)cnn12 (stereo not drawn) [III-413] | 6 (≈ 13.5 µM)
69 | CNC(=O)c1cccc(-c2cc(C)n3ncc(C(=O)NC(C4CC4)C(F)(F)F)c3n2)c1 (stereo not drawn) [III-414] | 1.6 (≈ 3.71 µM)
70 | Cc1cc(-c2cccc(-n3cccn3)c2)nc2c(C(=O)NC(C3CC3)C(F)(F)F)cnn12 (stereo not drawn) [III-415] | 1.2 (≈ 2.72 µM)
71 | Cc1cc(-c2cccc(-c3ncco3)c2)nc2c(C(=O)NC(C3CC3)C(F)(F)F)cnn12 (stereo not drawn) [III-416] | 0.3 (≈ 0.68 µM)
72 | Cc1cc(-c2cccc(-c3ncccn3)c2)nc2c(C(=O)NC(C3CC3)C(F)(F)F)cnn12 (stereo not drawn) [III-417] | 0.04 (≈ 0.0884 µM)
